Assay in all cases: relative viability (nuclei count vs DMSO), 5 days (fraction); higher = more cells survive
Compound in the assay “Veliparib + Pictilisib”: C[C@]1(c2nc3c(C(N)=O)cccc3[nH]2)CCCN1 [Veliparib] + CS(=O)(=O)N1CCN(Cc2cc3nc(-c4cccc5[nH]ncc45)nc(N4CCOCC4)c3s2)CC1 [Pictilisib] (partner 1 µM)
An outline of the steps:
(§1)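 Lung cancer cell lines, seeded in 1536-well plates, were treated the following day by pin tool with a single drug or with five library-drug doses (not always all listed) in √10 steps on top of a fixed anchor-drug dose. Cells were fixed and nuclei stained in one step after 5 days, and nuclei were counted. Relative viability is the nuclei count for treated wells divided by that for vehicle wells, reported as medians of duplicate plates.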

Compound in the assay “Veliparib + Trametinib”: C[C@]1(c2nc3c(C(N)=O)cccc3[nH]2)CCCN1 [Veliparib] + CC(=O)Nc1cccc(-n2c(=O)n(C3CC3)c(=O)c3c(Nc4ccc(I)cc4F)n(C)c(=O)c(C)c32)c1 [Trametinib] (partner 0.02 µM)
The method in brief:
as §1

Compound in assay [1]: COC1=CC=C(C=C1)CN2C=CC3=C2C=C(C=C3)C(=O)NO + N=C(N)NC(=N)NCCc1ccccc1 [Phenformin] (partner 250 µM)
An outline of the steps: as §1

Compound in the assay “Veliparib + Vorinostat”: C[C@]1(c2nc3c(C(N)=O)cccc3[nH]2)CCCN1 [Veliparib] + O=C(CCCCCCC(=O)Nc1ccccc1)NO [Vorinostat] (partner 1 µM)
The method in brief:
as §1

For the cell line Calu-6, the relative viability in the assay with Veliparib + Pictilisib (first compound 0.02 µM) turned out to be 1.02; in the assay with Veliparib + Pictilisib (first compound 0.06325 µM), 0.887; with Veliparib + Pictilisib (first compound 0.2 µM), 0.892; with Veliparib + Pictilisib (first compound 0.6325 µM), 0.816; in the assay with Veliparib + Pictilisib (first compound 2 µM), 0.85.

On to ChaGo-K-1, for which the relative viability with Veliparib + Trametinib (first compound 0.02 µM) stood at 0.673; with Veliparib + Trametinib (first compound 0.06325 µM), 0.842; in the assay with Veliparib + Trametinib (first compound 0.2 µM), 0.923; with Veliparib + Trametinib (first compound 0.6325 µM) it was 0.857; in the assay with Veliparib + Trametinib (first compound 2 µM), 0.905; in the assay with Veliparib + Pictilisib (first compound 0.06325 µM), 0.55. Besides, the relative viability with Veliparib + Pictilisib (first compound 0.2 µM) worked out at 0.86; in the assay with Veliparib + Pictilisib (first compound 0.6325 µM) it was 0.914; with Veliparib + Pictilisib (first compound 2 µM) it was 0.718; in assay [1] (first compound 0.253 µM) it was 0.539; in assay [1] (first compound 0.8 µM), 0.484; in assay [1] (first compound 2.53 µM), 0.438. The relative viability in assay [1] (first compound 8 µM) was 0.374; in the assay with Veliparib + Vorinostat (first compound 0.02 µM) it was 0.555; with Veliparib + Vorinostat (first compound 0.06325 µM), 0.735; with Veliparib + Vorinostat (first compound 0.2 µM), 0.662; with Veliparib + Vorinostat (first compound 0.6325 µM) it was 0.65; with Veliparib + Vorinostat (first compound 2 µM), 0.74.

In the case of EBC-1, the relative viability with Veliparib + Pictilisib (first compound 0.02 µM) was found to be 0.439; with Veliparib + Pictilisib (first compound 0.06325 µM) it was 0.38; with Veliparib + Pictilisib (first compound 0.2 µM) it was 0.477; with Veliparib + Pictilisib (first compound 0.6325 µM), 0.318; with Veliparib + Pictilisib (first compound 2 µM), 0.42.

EKVX: the relative viability is 0.317 with Veliparib + Trametinib (first compound 0.06325 µM); 0.329 with Veliparib + Trametinib (first compound 0.2 µM); 0.245 in the assay with Veliparib + Trametinib (first compound 0.6325 µM); 0.331 with Veliparib + Trametinib (first compound 2 µM); 0.427 in the assay with Veliparib + Pictilisib (first compound 0.02 µM); 0.464 in the assay with Veliparib + Pictilisib (first compound 0.06325 µM). The relative viability was 0.465 with Veliparib + Pictilisib (first compound 0.2 µM); 0.361 with Veliparib + Pictilisib (first compound 0.6325 µM); 0.397 in the assay with Veliparib + Pictilisib (first compound 2 µM); 0.192 in assay [1] (first compound 0.08 µM); 0.239 in assay [1] (first compound 0.253 µM); 0.264 in assay [1] (first compound 0.8 µM). In addition, the relative viability came to 0.225 in assay [1] (first compound 2.53 µM); 0.219 in assay [1] (first compound 8 µM); 0.745 with Veliparib + Vorinostat (first compound 0.06325 µM); 0.789 with Veliparib + Vorinostat (first compound 0.2 µM); 0.626 with Veliparib + Vorinostat (first compound 0.6325 µM); 0.66 with Veliparib + Vorinostat (first compound 2 µM).

In the case of IA-LM, the relative viability in the assay with Veliparib + Pictilisib (first compound 0.02 µM) stood at 0.444; with Veliparib + Pictilisib (first compound 0.06325 µM), 0.364; with Veliparib + Pictilisib (first compound 0.2 µM) it was 0.374; with Veliparib + Pictilisib (first compound 0.6325 µM), 0.306; with Veliparib + Pictilisib (first compound 2 µM), 0.367; with Veliparib + Vorinostat (first compound 0.02 µM), 0.925. For the same cell line, the relative viability in the assay with Veliparib + Vorinostat (first compound 0.06325 µM) is 0.906; with Veliparib + Vorinostat (first compound 0.2 µM), 0.888; with Veliparib + Vorinostat (first compound 0.6325 µM) it was 0.789; with Veliparib + Vorinostat (first compound 2 µM), 0.969.

On to NCI-H522, for which the relative viability with Veliparib + Trametinib (first compound 0.02 µM) worked out at 0.716; with Veliparib + Trametinib (first compound 0.06325 µM), 0.608; in the assay with Veliparib + Trametinib (first compound 0.2 µM), 0.805; with Veliparib + Trametinib (first compound 0.6325 µM), 0.771; in the assay with Veliparib + Trametinib (first compound 2 µM), 1.01; in assay [1] (first compound 0.253 µM), 0.591. The relative viability came to 0.614 in assay [1] (first compound 0.8 µM); 0.654 in assay [1] (first compound 2.53 µM); 0.651 in assay [1] (first compound 8 µM); 0.832 with Veliparib + Vorinostat (first compound 0.02 µM); 0.825 in the assay with Veliparib + Vorinostat (first compound 0.06325 µM); 0.736 in the assay with Veliparib + Vorinostat (first compound 0.2 µM). In addition, the relative viability in the assay with Veliparib + Vorinostat (first compound 0.6325 µM) came out at 0.84; with Veliparib + Vorinostat (first compound 2 µM), 0.979.

As for NCI-H1299, the relative viability with Veliparib + Pictilisib (first compound 0.02 µM) was 0.985; with Veliparib + Pictilisib (first compound 0.06325 µM), 0.703; with Veliparib + Pictilisib (first compound 0.2 µM), 0.779; with Veliparib + Pictilisib (first compound 0.6325 µM), 0.751; with Veliparib + Pictilisib (first compound 2 µM), 0.765.

Consider NCI-H1563, for which the relative viability in the assay with Veliparib + Pictilisib (first compound 0.02 µM) is 0.642; with Veliparib + Pictilisib (first compound 0.06325 µM), 0.635; with Veliparib + Pictilisib (first compound 0.2 µM), 0.625; with Veliparib + Pictilisib (first compound 0.6325 µM), 0.675; with Veliparib + Pictilisib (first compound 2 µM), 0.595; in assay [1] (first compound 0.08 µM), 0.622. Besides, the relative viability in assay [1] (first compound 0.253 µM) amounted to 0.676; in assay [1] (first compound 0.8 µM), 0.671; in assay [1] (first compound 2.53 µM), 0.664; in assay [1] (first compound 8 µM), 0.534.

Take NCI-H1648: the relative viability with Veliparib + Trametinib (first compound 0.02 µM) stood at 0.631; in the assay with Veliparib + Trametinib (first compound 0.6325 µM) it was 0.557; with Veliparib + Trametinib (first compound 2 µM) it was 0.516; with Veliparib + Vorinostat (first compound 0.02 µM) it was 0.481; with Veliparib + Vorinostat (first compound 0.6325 µM) it was 0.572; in the assay with Veliparib + Vorinostat (first compound 2 µM), 0.424.

In the case of NCI-H1703, the relative viability in the assay with Veliparib + Pictilisib (first compound 0.02 µM) is 0.267; with Veliparib + Pictilisib (first compound 0.06325 µM) it was 0.267; with Veliparib + Pictilisib (first compound 0.2 µM), 0.23; in the assay with Veliparib + Pictilisib (first compound 0.6325 µM), 0.254; in the assay with Veliparib + Pictilisib (first compound 2 µM) it was 0.216.

As to NCI-H1792, the relative viability turned out to be 0.499 in the assay with Veliparib + Trametinib (first compound 0.02 µM); 0.411 in the assay with Veliparib + Trametinib (first compound 0.06325 µM); 0.41 in the assay with Veliparib + Trametinib (first compound 0.2 µM); 0.438 with Veliparib + Trametinib (first compound 0.6325 µM); 0.401 with Veliparib + Trametinib (first compound 2 µM); 0.322 in the assay with Veliparib + Pictilisib (first compound 0.02 µM). Moreover, the relative viability with Veliparib + Pictilisib (first compound 0.06325 µM) was 0.212; in the assay with Veliparib + Pictilisib (first compound 0.2 µM) it was 0.301; in the assay with Veliparib + Pictilisib (first compound 0.6325 µM), 0.263; with Veliparib + Pictilisib (first compound 2 µM), 0.332; in assay [1] (first compound 0.08 µM), 0.455; in assay [1] (first compound 0.253 µM) it was 0.358. Besides, the relative viability in assay [1] (first compound 0.8 µM) was found to be 0.29; in assay [1] (first compound 2.53 µM), 0.19; in assay [1] (first compound 8 µM), 0.129.

On to NCI-H2342, for which the relative viability with Veliparib + Trametinib (first compound 0.02 µM) came out at 0.76; in the assay with Veliparib + Trametinib (first compound 0.06325 µM), 0.81; with Veliparib + Trametinib (first compound 0.2 µM), 0.701; with Veliparib + Trametinib (first compound 0.6325 µM), 0.742; with Veliparib + Trametinib (first compound 2 µM), 0.736; in assay [1] (first compound 0.08 µM), 0.588. Also, the relative viability in assay [1] (first compound 0.253 µM) was determined as 0.511; in assay [1] (first compound 0.8 µM), 0.48; in assay [1] (first compound 2.53 µM) it was 0.453; in assay [1] (first compound 8 µM) it was 0.409; with Veliparib + Vorinostat (first compound 0.02 µM) it was 0.787; with Veliparib + Vorinostat (first compound 0.06325 µM), 0.718. Besides, the relative viability is 0.732 with Veliparib + Vorinostat (first compound 0.2 µM), 0.714 with Veliparib + Vorinostat (first compound 0.6325 µM) and 0.703 with Veliparib + Vorinostat (first compound 2 µM).

SW 900: the relative viability in the assay with Veliparib + Trametinib (first compound 0.06325 µM) was 0.75; with Veliparib + Trametinib (first compound 0.2 µM), 0.938; with Veliparib + Trametinib (first compound 0.6325 µM), 0.621; with Veliparib + Trametinib (first compound 2 µM), 0.828; in assay [1] (first compound 0.08 µM), 0.643; in assay [1] (first compound 0.253 µM), 0.652. Besides, the relative viability in assay [1] (first compound 0.8 µM) came out at 0.593; in assay [1] (first compound 2.53 µM), 0.512; in assay [1] (first compound 8 µM), 0.339; with Veliparib + Vorinostat (first compound 0.06325 µM), 0.452; with Veliparib + Vorinostat (first compound 0.2 µM) it was 0.472; in the assay with Veliparib + Vorinostat (first compound 0.6325 µM), 0.606. For the same cell line, in the assay with Veliparib + Vorinostat (first compound 2 µM), the relative viability was 0.463.

The values above are taken from the supplement of paper PMC10307832.
